# What was measured:
# [1] = target: T1, glutathione-S-transferase (GST) tagged LXRbeta LBD (ligand binding domain) (Homo sapiens, UniProt P55055); experiment: LanthaScreen TR-FRET Liver X Receptor Coactivator Assay, LXR beta-LBD; format: biochemical; details: for Emax: efficacy in relation to reference dual agonist T1317, read-out: LXR beta activity at max dose (%) (Emax); for EC50: potency (Inflection Point) of co-activator recruitment, TR-FRET, read-out: LXR beta IP
# T1 construct: purchased Invitrogen pv4658.pps
# T1 sequence (P55055 222-460 limits assumed): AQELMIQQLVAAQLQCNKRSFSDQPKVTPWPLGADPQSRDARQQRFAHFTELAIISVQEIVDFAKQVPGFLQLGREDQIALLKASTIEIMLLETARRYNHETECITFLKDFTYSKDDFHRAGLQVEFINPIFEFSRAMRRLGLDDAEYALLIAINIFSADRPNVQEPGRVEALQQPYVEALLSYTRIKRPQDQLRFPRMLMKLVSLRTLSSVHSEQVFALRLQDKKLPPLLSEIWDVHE
# Experimental: (§1) While running the LanthaScreen™ TR-FRET Liver X Receptor Coactivator Assay, LXR alpha-LBD or LXR beta-LBD was added to ligand test compounds followed by addition of a mixture of a fluorescein-labelled coactivator peptide and terbium-conjugated anti-GST antibody. After an incubation period at room temperature, TR-FRET (time-resolved fluorescence resonance energy transfer) was measured using a filter-based instrument capable of TR-FRET, e.g. PerkinElmer Envision.
# [2] = target: T2, glutathione-S-transferase (GST) tagged LXRalpha LBD (ligand binding domain) (Homo sapiens, UniProt Q13133); experiment: LanthaScreen TR-FRET Liver X Receptor Coactivator Assay, LXR alpha-LBD; format: biochemical; details: for Emax: efficacy in relation to reference dual agonist T1317, read-out: LXR alpha activity at max dose (%) (Emax); for EC50 / LXR alpha IP (nM): potency (Inflection Point) of co-activator recruitment, TR-FRET; for EC50: read-out: LXR alpha IP
# T2 construct: purchased Invitrogen pv4655
# T2 sequence (Q13133 209-447 limits assumed): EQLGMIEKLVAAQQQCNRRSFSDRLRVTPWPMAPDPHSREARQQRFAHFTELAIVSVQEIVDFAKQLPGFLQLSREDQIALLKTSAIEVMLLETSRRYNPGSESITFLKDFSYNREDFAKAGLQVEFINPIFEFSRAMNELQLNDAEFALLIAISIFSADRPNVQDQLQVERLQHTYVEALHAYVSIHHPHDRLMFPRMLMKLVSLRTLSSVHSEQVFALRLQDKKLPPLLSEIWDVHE
# Experimental: as §1
SMILES,Emax [1] [%],EC50 [1] [nM],Emax [2] [%],EC50 [2] [nM],LXR alpha IP (nM) [2]
"CN(C)C(=O)c1ccc(-c2cnc(N3CCN(C(=O)[C@](O)(c4ccccc4)C(F)(F)F)CC3)c(C#N)c2)cc1Cl [Example 2-2, 2-chloro-4-(5-cyano-6-{4-[(2R)-3,3,3-trifluoro-2-hydroxy-2-phenylpropanoyl]piperazin-1-yl}pyridin-3-yl)-N,N-dimethylbenzamide]",102,1,61,617,
"CN(C)C(=O)c1ccc(-c2cnc(N3CCN(C(=O)C(C)(C)C)CC3)c(C#N)c2)cc1Cl [Example 2-3, 2-chloro-4-{5-cyano-6-[4-(2,2-dimethylpropanoyl)piperazin-1-yl]pyridin-3-yl}-N,N-dimethylbenzamide]",105,56,67,4810,
"CN(C)C(=O)c1ccc(-c2cnc(N3CCN(C(=O)C45CC(C4)C5)CC3)c(C#N)c2)cc1Cl [Example 2-4, 4-{6-[4-(bicyclo[1.1.1]pent-1-ylcarbonyl)piperazin-1-yl]-5-cyanopyridin-3-yl}-2-chloro-N,N-dimethylbenzamide]",79,95,44,12800,
"CCC(C)(C)C(=O)N1CCN(c2ncc(-c3ccc(C(=O)N(C)C)c(Cl)c3)cc2C#N)CC1 [Example 2-5, 2-chloro-4-{5-cyano-6-[4-(2,2-dimethylbutanoyl)piperazin-1-yl]pyridin-3-yl}-N,N-dimethylbenzamide]",97,109,62,11100,
"CN(C)C(=O)c1ccc(-c2cnc(N3CCN(C(=O)C4CCCCO4)CC3)c(C#N)c2)cc1Cl (stereo not shown) [Example 2-6, 2-chloro-4-{5-cyano-6-[4-(tetrahydro-2H-pyran-2-ylcarbonyl)piperazin-1-yl]pyridin-3-yl}-N,N-dimethylbenzamide]",49,1560,16,,No IP
CN(C)C(=O)c1ccc(-c2cnc(N3CCN(C(=O)Cc4ccccc4)CC3)c(C#N)c2)cc1Cl [Example 2-7],102,50,54,6790,
"Cc1cc(CC(=O)N2CCN(c3ncc(-c4ccc(C(=O)N(C)C)c(Cl)c4)cc3C#N)CC2)on1 [Example 2-8, 2-chloro-4-(5-cyano-6-{4-[(3-methylisoxazol-5-yl)acetyl]piperazin-1-yl}pyridin-3-yl)-N,N-dimethylbenzamide]",46,4170,5,,No IP
"CN(C)C(=O)c1ccc(-c2cnc(N3CCN(C(=O)C(=O)C(F)(F)F)CC3)c(C#N)c2)cc1Cl [Example 2-9, 2-chloro-4-{5-cyano-6-[4-(3,3,3-trifluoro-2-oxopropanoyl)piperazin-1-yl]pyridin-3-yl}-N,N-dimethylbenzamide]",99,245,42,16600,
"Cc1nonc1CC(=O)N1CCN(c2ncc(-c3ccc(C(=O)N(C)C)c(Cl)c3)cc2C#N)CC1 [Example 2-10, 2-chloro-4-(5-cyano-6-{4-[(4-methyl-1,2,5-oxadiazol-3-yl)acetyl]piperazin-1-yl}pyridin-3-yl)-N,N-dimethylbenzamide]",63,2330,10,,No IP
"CN(C)C(=O)c1ccc(-c2cnc(N3CCN(C(=O)[C@H](O)C(F)(F)F)CC3)c(C#N)c2)cc1Cl [Example 2-11, 2-chloro-4-(5-cyano-6-{4-[(2S)-3,3,3-trifluoro-2-hydroxypropanoyl]piperazin-1-yl}pyridin-3-yl)-N,N-dimethylbenzamide]",77,1060,30,27900,
"CCCCC(C)(C)C(=O)N1CCN(c2ncc(-c3ccc(C(=O)N(C)C)c(Cl)c3)cc2C#N)CC1 [Example 2-12, 2-chloro-4-{5-cyano-6-[4-(2,2-dimethylhexanoyl)piperazin-1-yl]pyridin-3-yl}-N,N-dimethylbenzamide]",79,27,43,1750,
"CN(C)C(=O)c1ccc(-c2cnc(N3CCN(C(=O)C4Cc5ccccc54)CC3)c(C#N)c2)cc1Cl (stereo not shown) [Example 2-13, 4-{6-[4-(bicyclo[4.2.0]octa-1,3,5-trien-7-ylcarbonyl)piperazin-1-yl]-5-cyanopyridin-3-yl}-2-chloro-N,N-dimethylbenzamide]",108,57,50,8050,
"Cc1noc(C)c1CC(=O)N1CCN(c2ncc(-c3ccc(C(=O)N(C)C)c(Cl)c3)cc2C#N)CC1 [Example 2-14, 2-chloro-4-(5-cyano-6-{4-[(3,5-dimethylisoxazol-4-yl)acetyl]piperazin-1-yl}pyridin-3-yl)-N,N-dimethylbenzamide]",77,1350,23,,No IP
"CN(C)C(=O)c1ccc(-c2cnc(N3CCN(C(=O)[C@@](C)(O)C(F)(F)F)CC3)c(C#N)c2)cc1Cl [Example 2-15, 2-chloro-4-(5-cyano-6-{4-[(2R)-3,3,3-trifluoro-2-hydroxy-2-methylpropanoyl]piperazin-1-yl}pyridin-3-yl)-N,N-dimethylbenzamide]",101,171,58,13100,
"CN(C)C(=O)c1ccc(-c2cnc(N3CCN(C(=O)[C@](C)(O)C(F)(F)F)CC3)c(C#N)c2)cc1Cl [Example 2-16, 2-chloro-4-(5-cyano-6-{4-[(2S)-3,3,3-trifluoro-2-hydroxy-2-methylpropanoyl]piperazin-1-yl}pyridin-3-yl)-N,N-dimethylbenzamide]",94,242,58,13000,
"CN(C)C(=O)c1ccc(-c2cnc(N3CCN(C(=O)C4(c5ccccc5)CC4)CC3)c(C#N)c2)cc1Cl [Example 2-17, 2-chloro-4-(5-cyano-6-{4-[(1-phenylcyclopropyl)carbonyl]piperazin-1-yl}pyridin-3-yl)-N,N-dimethylbenzamide]",95,27,27,4360,
"CN(C)C(=O)c1ccc(-c2cnc(N3CCN(C(=O)C(C)(C)c4ccccc4)CC3)c(C#N)c2)cc1Cl [Example 2-18, 2-chloro-4-{5-cyano-6-[4-(2-methyl-2-phenylpropanoyl)piperazin-1-yl]pyridin-3-yl}-N,N-dimethylbenzamide]",99,15,43,16400,
"CN(C)C(=O)c1ccc(-c2cnc(N3CCN(C(=O)[C@](C)(O)c4ccccc4)CC3)c(C#N)c2)cc1Cl [Example 2-19, 2-chloro-4-(5-cyano-6-{4-[(2R)-2-hydroxy-2-phenylpropanoyl]piperazin-1-yl}pyridin-3-yl)-N,N-dimethylbenzamide]",77,27,27,60200,
"CCC(O)(C(=O)N1CCN(c2ncc(-c3ccc(C(=O)N(C)C)c(Cl)c3)cc2C#N)CC1)C(F)(F)F (stereo not shown) [Example 2-20, 2-chloro-4-(5-cyano-6-{4-[2-hydroxy-2-(trifluoromethyl)butanoyl]piperazin-1-yl}pyridin-3-yl)-N,N-dimethylbenzamide]",102,138,60,6070,
"CN(C)C(=O)c1ccc(-c2cnc(N3CCN(C(=O)c4c(F)cccc4Cl)CC3)c(C#N)c2)cc1Cl [Example 2-21, 2-chloro-4-(6-{4-[(2-chloro-6-fluorophenyl)carbonyl]piperazin-1-yl}-5-cyanopyridin-3-yl)-N,N-dimethylbenzamide]",59,147,41,6290,
"CN(C)C(=O)c1ccc(-c2cnc(N3CCN(C(=O)Cc4c[nH]c5ccccc45)CC3)c(C#N)c2)cc1Cl [Example 2-22, 2-chloro-4-{5-cyano-6-[4-(1H-indol-3-ylacetyl)piperazin-1-yl]pyridin-3-yl}-N,N-dimethylbenzamide]",83,186,54,30000,
"CN(C)C(=O)c1ccc(-c2cnc(N3CCN(C(=O)C4(c5ccccc5)CCC4)CC3)c(C#N)c2)cc1Cl [Example 2-23, 2-chloro-4-(5-cyano-6-{4-[(1-phenylcyclobutyl)carbonyl]piperazin-1-yl}pyridin-3-yl)-N,N-dimethylbenzamide]",97,43,47,1140,

# Reference: patent US10239849B2 (Merck Sharp & Dohme Corp., priority 2015, dated 2019)
